Consider nine compounds from paper PMC10024865 (Journal of medicinal chemistry, 2022).

The test system of series [1] is PC3M cells. Put plainly: Secondary cytotoxicity/viability assays. Format: cell-based. The settings on record: ATP, caspase 3/7, PicoGreen.
In series [2] the test system is PC3M cells. Briefly: BellBrook Labs tumor cell migration. Format: cell-based. The settings on record: 3D collagen.
Series [3] relates to PNC prevalence in PC3M cells (GFP-PTB). Briefly: High-content assay for PNC reduction. Format: cell-based.
Series [4] deals with nucleolar volume in PC3M cells. Put plainly: Nucleolar disassembly assay. Format: cell-based. The settings on record: 24 hr, concentration-response.
The conditions of series [5]: mouse, in vivo, ip, 5 mg/kg.
A short description of a further series: in vivo. As to conditions: ip.
Series [6] can be described thus: Parallel artificial membrane permeability assay. The settings on record: pH 7.4. Format: in vitro ADME.
The test system of series [7] is nucleolar architecture in PC3M cells. Put plainly: Immunofluorescence of nucleolar markers RP-194 and NOPP140. Format: cell-based. The settings on record: 1 μM, 1 hour.

Structures are written as SMILES.

A word on the half-life: it is the time in which the quantity being followed falls by half.

`O=C(Nc1cccnc1)c1cccs1` [CID 790407]: the “Activity in all other secondary cytotoxicity/viability assays” value with PC3M cells [1] is “inactive”. Besides, the “Activity in the invasion assay” value in the series with PC3M cells [2] is on record as “active”. As to `N#Cc1c(-c2ccccc2)c(-c2ccccc2)n(Cc2ccccc2)c1N` [Compound 2a], the “PNC reduction activity (in words)” value in series [3] was “inactive”. On the same count and under the same terms, for `CCO/C=N/c1c(C#N)c(-c2ccccc2)c(-c2ccccc2)n1Cc1ccccc1` [Compound 3a, Ethyl (E)-N-(1-benzyl-3-cyano-4,5-diphenyl-1H-pyrrol-2-yl)formimidate] the value was “inactive”; for `N#Cc1c(-c2ccccc2)c(-c2ccccc2)n(Cc2ccccc2)c1/N=C/N[C@H]1CC[C@H](O)CC1` [Compound 4f, (E)-N'-(1-benzyl-3-cyano-4,5-diphenyl-1H-pyrrol-2-yl)-N-((trans)-4-hydroxycyclohexyl)formimidamide], “inactive”. On to `N=c1c2c(-c3ccccc3)c(-c3ccccc3)n(Cc3ccccc3)c2ncn1[C@H]1CC[C@H](O)CC1` [Compound 5f, trans-4-(7-Benzyl-4-imino-5,6-diphenyl-4,7-dihydro-3H-pyrrolo[2,3-d]pyrimidin-3-yl)cyclohexan-1-ol], for which the “effect on nucleolar volume” value in series [4] is “able to reduce nucleolar volume”. Further, the “C48h (μM)” value in series [5] was “BLQ^b”. For the same compound, the half-life in “in vivo” (female, BALB/c, mouse, 5 mg/kg) is 278 min; in the series “in vivo” (female, BALB/c, mouse, 25 mg/kg), 331 min; in “in vivo” (male, C57BL/6, mouse, 50 mg/kg), 984 min. The concentration at 48 h in the series “in vivo” (female, BALB/c, mouse, 25 mg/kg, C48h (μM)) stood at 0.011 µM. `Cc1c(C)n(Cc2ccccc2)c2ncn([C@H]3CC[C@H](O)CC3)c(=N)c12` [Compound 5nnn, (trans)-4-(7-Benzyl-4-imino-5,6-dimethyl-4,7-dihydro-3H-pyrrolo[2,3-d]pyrimidin-3-yl)cyclohexan-1-ol]: the “PAMPA permeability (in words)” value in series [6] is recorded as “negligible”. `N=c1c2c(-c3ccccc3)cn(Cc3ccccc3)c2ncn1C1CCOCC1` [Compound 11b, 7-Benzyl-5-phenyl-3-(tetrahydro-2H-pyran-4-yl)-3,7-dihydro-4H-pyrrolo[2,3-d]pyrimidin-4-imine]: the “effect on nucleolar volume” value in series [4] was “did not influence nucleolar integrity and morphology”. Besides, the “distribution of RP-194 and NOPP140 in the nucleolus” value in series [7] is on record as “diffuse distribution”.

As for `OCCCNc1ncnc2c1c(-c1ccccc1)c(-c1ccccc1)n2Cc1ccccc1` [Compound 13a, 3-((7-Benzyl-5,6-diphenyl-7H-pyrrolo[2,3-d]pyrimidin-4-yl)amino)propan-1-ol], the “PNC reduction activity (in words)” value in series [3] was “uniformly inactive”. Regarding `O[C@H]1CC[C@H](Nc2ncnc3c2c(-c2ccccc2)c(-c2ccccc2)n3Cc2ccccc2)CC1` [Compound 13b, trans-4-((7-Benzyl-5,6-diphenyl-7H-pyrrolo[2,3-d]pyrimidin-4-yl)amino)cyclohexan-1-ol], in series [3], the “PNC reduction activity (in words)” value was “uniformly inactive”.
